Laboratory results as given in patent US20210239681A1, “COMPOSITIONS AND METHODS FOR […] OF […]-BASED IMMUNOTHERAPEUTICS” (ADVAXIS, INC., priority 2018, published 2021).

System: PBMC
Assay: Cytokine release by donor PBMC cultured with peptide
Type: cell-based, human
Design: unit not given beside the values
Conditions: release on antigen
Description: Peripheral blood mononuclear cells (PBMCs) samples were collected from three human HLA-A*02:01 donors: 358, 213, and 224. The peripheral blood mononuclear cells (PBMCs) were cultured with one of two E7 peptides: […] (9mer or 1T; SEQ ID NO: 100) or […] (10mer or 2T; SEQ ID NO: 101). After 10 days culture, the PBMCs were tested for E7 peptide binding staining and cytokine release.

YMLDLQPETT [10mer]
IFNγ Mean (donor 213 PBMC cultured with 1T peptide): 86.6 | IFNγ Mean (donor 358 PBMC stimulated with 1T): 183.9 | IFNγ Mean (donor 358 PBMC stimulated with 2T): 359.8
